Laboratory results reported in ChEMBL document CHEMBL1201862, “PubChem BioAssay data set” (2004).
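Growth conditions: 96-well plates. Treatment: test compound, 48 hours, 5 concentrations. Analysis: linear interpolation between bracketing concentrations; unreached endpoints set to highest concentration. GI50 = concentration required for 50% inhibition of growth.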 The source made the active and inactive calls. Cut-off read from the data, not from the text of the source: active = GI50 up to about 1.1 µM and inactive = higher.

Experiments:
Test in all cases: NCI anticancer screen, dose series, 48 h
[1] = system: DLD-1
[2] = system: DMS-114
[3] = system: DMS-273
[4] = system: HOP-18
[5] = system: KM-20L2
[6] = system: LXFL 529
[7] = system: M19-MEL
[8] = system: XF498
[9] = system: RXF 631

Row | SMILES | GI50 [1] | GI50 [2] | GI50 [3] | GI50 [4] | GI50 [5] | GI50 [6] | GI50 [7] | GI50 [8] | GI50 [9]
1 | CCOC(=O)C1(C(=O)OCC)OC(=O)NC2=C1CCCC2 | > 100 µM (inactive) | > 100 µM (inactive) | > 100 µM (inactive) | 19.5 µM (inactive) | > 100 µM (inactive) | > 100 µM (inactive) | > 100 µM (inactive) | > 100 µM (inactive) | 
2 | CC(=O)Nc1ccccc1Sc1ccccc1 |  | > 100 µM (inactive) | > 100 µM (inactive) | > 100 µM (inactive) | > 100 µM (inactive) | > 100 µM (inactive) | > 100 µM (inactive) | > 100 µM (inactive) | > 100 µM (inactive)
3 | OC1/C(=C/c2ccccc2)CNC/C1=C\c1ccccc1 (stereo unspecified) | > 100 µM (inactive) | > 100 µM (inactive) | > 100 µM (inactive) | > 100 µM (inactive) | > 100 µM (inactive) | > 100 µM (inactive) | > 100 µM (inactive) |  | 
4 | CC1SC2=NC3=C(c4ccccc4C3=O)C(c3ccc(Br)cc3)N2C1=O (stereo unspecified) | 76 µM (inactive) | 31.2 µM (inactive) | > 100 µM (inactive) |  | > 100 µM (inactive) | 53 µM (inactive) | 56.9 µM (inactive) | 43.8 µM (inactive) | 
5 | O=Cc1ccc2c(c1-c1c(C=O)ccc3c1OCO3)OCO2 | > 100 µM (inactive) | > 100 µM (inactive) | > 100 µM (inactive) | > 100 µM (inactive) | > 100 µM (inactive) | > 100 µM (inactive) | > 100 µM (inactive) |  | 
6 | O=[N+]([O-])c1nccn1CC(O)c1ccc(F)cc1 (stereo unspecified) |  | > 100 µM (inactive) | > 100 µM (inactive) | > 100 µM (inactive) | > 100 µM (inactive) | > 100 µM (inactive) | > 100 µM (inactive) | > 100 µM (inactive) | > 100 µM (inactive)
7 | Cn1c(=O)nc2n(-c3cccc(Br)c3)c3ccccc3nc-2c1=O | 5.41 µM (inactive) | 2.04 µM (inactive) | 3.1 µM (inactive) | 5.9 µM (inactive) | 2.43 µM (inactive) | 6.1 µM (inactive) | 1.43 µM (inactive) | 5.36 µM (inactive) | 
8 | O=NN(CCCl)C(=O)NCCCl [CARMUSTINE] | 76.6 µM (inactive) | 61.5 µM (inactive) | 74 µM (inactive) | 91.4 µM (inactive) | 94 µM (inactive) | 71.4 µM (inactive) | 77.6 µM (inactive) | 68.1 µM (inactive) | 80.2 µM (inactive)
9 | CCCCCN(CCCCC)C(=O)[C@@H](CCC(=O)OCc1ccccc1)NC(=O)c1cc2ccccc2[nH]1 | > 100 µM (inactive) | > 100 µM (inactive) | > 100 µM (inactive) | > 100 µM (inactive) | > 100 µM (inactive) | 8.85 µM (inactive) |  |  | > 100 µM (inactive)
10 | C#CCC(N)(CO)C(=O)O (stereo unspecified) | > 100 µM (inactive) | > 100 µM (inactive) | > 100 µM (inactive) | > 100 µM (inactive) |  | > 100 µM (inactive) | > 100 µM (inactive) | > 100 µM (inactive) | 
11 | OC12CCCCCC1(N1CCOCC1)c1ccccc12 (stereo unspecified) |  | > 100 µM (inactive) | > 100 µM (inactive) | > 100 µM (inactive) | > 100 µM (inactive) | > 100 µM (inactive) | > 100 µM (inactive) |  | 
12 | C#CC1(O)c2ccccc2C(=O)c2ccccc21 |  |  | > 100 µM (inactive) | > 100 µM (inactive) | > 100 µM (inactive) | > 100 µM (inactive) | > 100 µM (inactive) | 84.7 µM (inactive) | 
13 | CC(C)C(=O)Nc1nc2c(ncn2C2OC(CO)C(O)C2O)c(=O)[nH]1 (stereo unspecified) | > 100 µM (inactive) | 67.1 µM (inactive) | > 100 µM (inactive) | > 100 µM (inactive) | > 100 µM (inactive) | > 100 µM (inactive) | > 100 µM (inactive) | > 100 µM (inactive) | > 100 µM (inactive)
14 | N#CCCCCCOCCOCCOCCOCCOCCCCCC#N | > 100 µM (inactive) | > 100 µM (inactive) | > 100 µM (inactive) | > 100 µM (inactive) | > 100 µM (inactive) | > 100 µM (inactive) | > 100 µM (inactive) |  | > 100 µM (inactive)
15 | CCc1cccc(C)c1NC(=O)C(=O)Cc1nc2ccccc2o1 | > 100 µM (inactive) | > 100 µM (inactive) |  | > 100 µM (inactive) | > 100 µM (inactive) | > 100 µM (inactive) | > 100 µM (inactive) | > 100 µM (inactive) | 
16 | COc1cc2c(c(OC)c1OC)-c1ccc(SC)c(=O)cc1[C@@H](NC(=O)c1cccc([N+](=O)[O-])c1)CC2 | < 0.01 µM (active) |  | < 0.01 µM (active) |  | 0.0172 µM (active) | 0.0239 µM (active) | 0.0296 µM (active) | 0.0205 µM (active) | 0.0164 µM (active)
17 | COCC(OC)C(CC=C(C#N)C#N)OC (stereo unspecified) |  | > 100 µM (inactive) | > 100 µM (inactive) |  | > 100 µM (inactive) | > 100 µM (inactive) | > 100 µM (inactive) | > 100 µM (inactive) | 
18 | CCN(CC)CCNc1ccc2nnn3c4ccc(OC)cc4c(=O)c1c23 | 5.05 µM (inactive) | 8.89 µM (inactive) |  | 0.507 µM (active) | 5.27 µM (inactive) | 9.62 µM (inactive) | 13.5 µM (inactive) |  | 3.83 µM (inactive)
19 | CC1(Br)CC2OC3(Br)C=CC(C)(O)C2(CC1=O)C3(C)C (stereo unspecified) | 98.2 µM (inactive) | > 100 µM (inactive) | > 100 µM (inactive) | > 100 µM (inactive) | > 100 µM (inactive) | 98.9 µM (inactive) |  | > 90.4 µM (inactive) | 
20 | CSc1nc(-c2ccccc2)c2c(n1)-c1ccccc1CC2 | > 100 µM (inactive) | > 100 µM (inactive) |  | > 100 µM (inactive) | 78.5 µM (inactive) | > 100 µM (inactive) | > 100 µM (inactive) | > 100 µM (inactive) | > 100 µM (inactive)
21 | CN(C)c1ccc2nc3c(ccc4ccccc43)[o+]c2c1 | 5.51 µM (inactive) | 19.3 µM (inactive) | 17.9 µM (inactive) | 10.1 µM (inactive) | 13.8 µM (inactive) | 6.53 µM (inactive) | 3.03 µM (inactive) | 14.4 µM (inactive) | 7.91 µM (inactive)
22 | NC(=O)N1N=C2c3ccccc3OC[C@H]2[C@@H]1c1ccccc1 | 6.5 µM (inactive) | 7.53 µM (inactive) | 9.1 µM (inactive) | 18.7 µM (inactive) | 23.4 µM (inactive) | 31 µM (inactive) | 49.7 µM (inactive) | 10.7 µM (inactive) | 
23 | Cc1nc2ccccc2c(=O)n1/N=C(\N=N\c1cc(Cl)ccc1Cl)c1ccccc1 | 45.6 µM (inactive) | 30.2 µM (inactive) | 43.3 µM (inactive) | 14.3 µM (inactive) | 0.412 µM (active) | 36.5 µM (inactive) | 77.4 µM (inactive) | 61.2 µM (inactive) | > 10 µM (inactive)
24 | C/C(=C\C(=O)Nc1ccc2[nH]nnc2c1)Nc1ccc2[nH]nnc2c1 | > 100 µM (inactive) | > 100 µM (inactive) |  | > 100 µM (inactive) | > 100 µM (inactive) | > 100 µM (inactive) | > 100 µM (inactive) |  | > 100 µM (inactive)
25 | O=C1C2C(C(=O)N1O)N(Cc1ccccc1)C(=O)N2Cc1ccccc1 (stereo unspecified) | > 100 µM (inactive) | > 100 µM (inactive) |  |  | > 100 µM (inactive) | > 100 µM (inactive) | > 100 µM (inactive) | > 100 µM (inactive) | 
26 | CC(C)(O)[C@@H]1CCC(C)([C@H]2[C@@H](O)CC3(C)C4CC(OC5OC(CO)C(O)C(O)C5O)C5C(C)(C)[C@@H](OC6OCC(O)C(O)C6O)CC[C@@]56C[C@@]46CC[C@]23C)O1 (stereo partly specified) | > 100 µM (inactive) | > 100 µM (inactive) | > 100 µM (inactive) | > 100 µM (inactive) | > 100 µM (inactive) | > 100 µM (inactive) | > 100 µM (inactive) | > 100 µM (inactive) | 
27 | O=C(Cc1ccccc1)NN1C(=O)C(Cl)C1c1cc(Br)cc(Br)c1O (stereo unspecified) | 8.81 µM (inactive) | 3.97 µM (inactive) | 12.5 µM (inactive) | 7.83 µM (inactive) | 24.7 µM (inactive) | 13.5 µM (inactive) | 15.8 µM (inactive) | 19.8 µM (inactive) | 
28 | COc1ccc2c(c1)CCc1c(-c3n[nH]c4c3CCc3cc(OC)ccc3-4)n[nH]c1-2 | 54.5 µM (inactive) | 55.5 µM (inactive) | 17.4 µM (inactive) | 25.8 µM (inactive) | 47.5 µM (inactive) | 33.1 µM (inactive) | 33 µM (inactive) | 32.8 µM (inactive) | 
29 | CCOC(=O)CC1=N/C(=N/C(=N)N[N+](=O)[O-])SC1 | > 100 µM (inactive) |  | > 100 µM (inactive) | > 100 µM (inactive) | > 100 µM (inactive) | > 100 µM (inactive) | > 100 µM (inactive) |  | 
